Source: US20170119020A1, “METHOD OF FEEDING AN ANIMAL” (CARGILL, INCORPORATED, priority 2014, published 2017)
Marks after values point to notes of the source that are not given here.

Columns and labels:
sows and piglets = assay: Content of vitamins E and A in serum of sows and piglets, HPLC (Example 10); format: in vivo, pig; details: for Vitamin A in serum of piglets / Vitamin E in serum of piglets: piglets at 21 days
Description: (§1) The performance following criteria were monitored during the trial: (i) Sows response criteria (actual parity, farrowing rate, culled sows—number and reasons, wean-to-mating interval, farrowing rate in the next cycle); (ii) litter response criteria (number of piglets, total, alive, stillborn, mummies; weight of piglets and litters; survival). The following biochemical (blood) criteria were monitored during the trial for the sows (mating, farrowing and weaning), piglets 21st day: (i) glutathione peroxidase (GPx) activity; (ii) superoxide dismutase (SOD) activity; (iii) total antioxidant status (TAS); (iv) vitamin E content; (v) vitamin A content.
To determine the oxidative status, the blood samples were collected from sows and piglets into tubes with lithium anticoagulant—received whole blood for analysis. At the same time blood samples were taken for blood clot. They were centrifuged (1500 rpm, 15 Temp. 4° C.) and obtained serum was pipetted into separate tubes.
The content of the TAS (total antioxidant status) were determined using the Antioxidant assay kit (Cat. No CS0790), the activity of SOD (superoxide dismutase) was determined using SOD determination kit 19160, the activity of GPx (glutathione Peroxide assai Cellular Activity Kit) Cat. No CGP1. The content of vitamins A and E by McMurray and Blanchflower 1979 (Journal of Chromatography 178, 525-531.). TAS
Serum samples (1 ml) was deproteinized with anhydrous ethanol (1 ml), extracted with 5 ml of n-hexane (Vortex 5′), then centrifuged (3000 rpm, 10′, temp. 4° C.). The resulting 4 ml of the supernatant were evaporated to dryness under nitrogen, and then dissolved in 1 ml of 96% ethanol and analyzed by high performance liquid chromatography (HPLC).
The contents of retinol and tocopherol was determined by reversed-phase high performance liquid chromatography (HPLC) with chromatograph SHIMADZU. Nucleosil C18 column is used, the carrier phase was methanol-water (95:5, v: v). The measurement was performed using a UV detector at a wavelength of 326 nm to determine the amount of retinol and a fluorescence detector (excitation wavelength—295 nm, emission wavelength—330 nM) to determine the tocopherol content. The concentration of retinol and tocopherol were calculated on the basis of the peak external standards (Sigma-Aldrich (□)-a-Tocopherol, Retinol Vitamin-A-alcohol).

Ross 308 male broilers = assay: Grow out of offspring (Example 6); format: in vivo, chicken; details: 160 versus 80 ppm in breeder diet
[1] = system: sows (PIC) and their piglets; assay: Litter performance (Example 10); format: in vivo, pig; details: for Mortality: piglets until weaning
Method: Testing was performed on sows (primiparous and multiparous) of the same type of crossing (PIC). The trial comprised 52 sows in a system of continuous farrowing. Each group was consist of 13 animals. The trial ran from day 1 of pregnancy to remating in the next cycle.
Each group was fed with complete diets for pregnant sows (0-90 d) and for lactation sows (90 d of gestation-weaning) with different inclusion of vitamin E and tested product (see TABLE 43A) and lactation diets (see TABLE 43B)
as §1

sows (PIC) = assay: Sow performance (Example 10); format: in vivo, pig; details: for Culled sows, n: reproductive failure: 13 sows; for Wean-to-remate interval / Weaning-to-estrus interval: Subsequent performance; for Farrowing rate (%), subsequent performance: next cycle
Method: The trial was conducted at a farm in Poland. In general the housing and management conditions on the chosen workplace were considered representative for the geographical region. The breeding, gestation, and farrowing facilities of the farm were fully enclosed buildings with rooms that were ventilated and heated to maintain a minimum comfort zone temperature for the sows. Testing was performed on sows (primiparous and multiparous) of the same type of crossing (PIC). The trial comprised 52 sows in a system of continuous farrowing. Each group was consist of 13 animals. The trial ran from day 1 of pregnancy to remating in the next cycle. There were two dietary compositions: LP 0-90 d, LK-90 d of gestation-weaning. Feed fed throughout the study was manufactured in the feed mill of the farm. The feed produced was complete feeds according to the standard feeding management procedures on the participating farm. Feed consistency was mash. […] Each group was fed with complete diets for pregnant sows (0-90 d) and for lactation sows (90 d of gestation-weaning) with different inclusion of vitamin E and tested product (see TABLE 43A) and lactation diets (see TABLE 43B) The performance following criteria were monitored during the trial: (i) Sows response criteria (actual parity, farrowing rate, culled sows—number and reasons, wean-to-mating interval, farrowing rate in the next cycle); (ii) litter response criteria (number of piglets, total, alive, stillborn, mummies; weight of piglets and litters; survival). The following biochemical (blood) criteria were monitored during the trial for the sows (mating, farrowing and weaning), piglets 21st day: (i) glutathione peroxidase (GPx) activity; (ii) superoxide dismutase (SOD) activity; (iii) total antioxidant status (TAS); (iv) vitamin E content; (v) vitamin A content.

[2] = Breeding, Group 2: vitamin E 50/75 mg/kg diet
[3] = Breeding, Group 3: vitamin E 100/150 mg/kg diet
[4] = Farrowing, Group 2: vitamin E 50/75 mg/kg diet
[5] = Farrowing, Group 3: vitamin E 100/150 mg/kg diet
[6] = Weaning, Group 2: vitamin E 50/75 mg/kg diet
[7] = Weaning, Group 3: vitamin E 100/150 mg/kg diet
[8] = Group 2: vitamin E 50/75 mg/kg sow diet
[9] = Group 3: vitamin E 100/150 mg/kg sow diet
[10] = 1st day, Group 2: vitamin E 50/75 mg/kg sow diet
[11] = 1st day, Group 3: vitamin E 100/150 mg/kg sow diet
[12] = Weaning, Group 2: vitamin E 50/75 mg/kg sow diet
[13] = Weaning, Group 3: vitamin E 100/150 mg/kg sow diet
[14] = Group 2: vitamin E 50/75 mg/kg diet
[15] = Group 3: vitamin E 100/150 mg/kg diet

Cc1c(C)c2c(c(C)c1O)CCC(C)(CCCC(C)CCCC(C)CCCC(C)C)O2 (racemic) [Vitamin E, DL-α-tocopherol]
Content of Vitamin A in the serum of sows (sows and piglets; [2]): 0.15 µg/mL | Content of Vitamin E in the serum of sows (sows and piglets; [2]): 1.09 µg/mL | Content of Vitamin A in the serum of sows (sows and piglets; [3]): 0.16 µg/mL | Content of Vitamin E in the serum of sows (sows and piglets; [3]): 1.11 µg/mL | Content of Vitamin A in the serum of sows (sows and piglets; [4]): 0.11 µg/mL | Content of Vitamin E in the serum of sows (sows and piglets; [4]): 0.74 µg/mL | Content of Vitamin A in the serum of sows (sows and piglets; [5]): 0.15 µg/mL | Content of Vitamin E in the serum of sows (sows and piglets; [5]): 1.16 µg/mL | piglet serum a-tocopherol concentrations, lactation sows fed 150 mg/kg versus 75 mg/kg vitamin E (sows and piglets; P<0.001): higher | Content of Vitamin A in the serum of sows (sows and piglets; [6]): 0.15 µg/mL | Content of Vitamin E in the serum of sows (sows and piglets; [6]): 1.02 µg/mL | Content of Vitamin A in the serum of sows (sows and piglets; [7]): 0.15 µg/mL | Content of Vitamin E in the serum of sows (sows and piglets; [7]): 1.13 µg/mL | sow serum a-tocopherol (vitamin E) concentrations when vitamin E was added to the sow diets (sows and piglets; gestation and lactation, P<0.001): higher | Vitamin A in serum of piglets (sows and piglets; [8]): 0.16 µg/mL | Vitamin E in serum of piglets (sows and piglets; [8]): 1.41 µg/mL | Vitamin A in serum of piglets (sows and piglets; [9]): 0.2 µg/mL | Vitamin E in serum of piglets (sows and piglets; [9]): 1.61 µg/mL | feed to gain corrected for final bodyweight, worse for high versus low vitamin E treatment (Ross 308 male broilers): 2.6% | overall feed to gain, worse for high versus low vitamin E treatment (Ross 308 male broilers): 1.4% | Litter weight [1, 10]: 18.50^a kg | Number of piglets per litter, Born alive [1, 10]: 12.82 | Number of piglets per litter, Mummies [1, 10]: 0.18 | Number of piglets per litter, Stillborn [1, 10]: 1.36 | Number of piglets per litter, Weak [1, 10]: 0.36 | Piglet weight [1, 10]: 1.44 kg | Litter weight [1, 11]: 19.07^a kg | Number of piglets per litter, Born alive [1, 11]: 13.18 | Number of piglets per litter, Mummies [1, 11]: 0.20 | Number of piglets per litter, Stillborn [1, 11]: 1.09 | Number of piglets per litter, Weak [1, 11]: 0.40 | Piglet weight [1, 11]: 1.45 kg | Litter weight [1, 12]: 83.96^b kg | Piglet weight [1, 12]: 7.16 kg | Weaning Number of piglets per litter [1, 12]: 11.73 | Litter weight [1, 13]: 84.33^b kg | Piglet weight [1, 13]: 7.31 kg | Weaning Number of piglets per litter [1, 13]: 11.82 | Mortality [1, 8]: 8.37% | Mortality [1, 9]: 10.64% | Farrowing rate (%) (sows (PIC); [14]): 84.62% | Culled sows, n: reproductive failure (sows (PIC); [14]): 2 | Farrowing rate (%) (sows (PIC); [15]): 84.62% | Culled sows, n: reproductive failure (sows (PIC); [15]): 2 | Wean-to-remate interval (sows (PIC); [14]): 9.89 days | Weaning-to-estrus interval (sows (PIC); [14]): 5.09 days | Wean-to-remate interval (sows (PIC); [15]): 7.70 days | Weaning-to-estrus interval (sows (PIC); [15]): 5.64 days | Farrowing rate (%), subsequent performance (sows (PIC); [14]): 80.00% | Farrowing rate (%), subsequent performance (sows (PIC); [15]): 90.91%
